Experimental findings from patent publication US20250171438A1 (Agios Pharmaceuticals, Inc., priority 2022, published 2025) are described below.

Like-named read-outs stand apart in the source and are kept apart here.

The target of the experiment is T1, human PAH with the R408W mutation (Homo sapiens, UniProt P00439, R408W).
T1 construct: expressed in transfected cells
T1 sequence (P00439 1-452 R408W): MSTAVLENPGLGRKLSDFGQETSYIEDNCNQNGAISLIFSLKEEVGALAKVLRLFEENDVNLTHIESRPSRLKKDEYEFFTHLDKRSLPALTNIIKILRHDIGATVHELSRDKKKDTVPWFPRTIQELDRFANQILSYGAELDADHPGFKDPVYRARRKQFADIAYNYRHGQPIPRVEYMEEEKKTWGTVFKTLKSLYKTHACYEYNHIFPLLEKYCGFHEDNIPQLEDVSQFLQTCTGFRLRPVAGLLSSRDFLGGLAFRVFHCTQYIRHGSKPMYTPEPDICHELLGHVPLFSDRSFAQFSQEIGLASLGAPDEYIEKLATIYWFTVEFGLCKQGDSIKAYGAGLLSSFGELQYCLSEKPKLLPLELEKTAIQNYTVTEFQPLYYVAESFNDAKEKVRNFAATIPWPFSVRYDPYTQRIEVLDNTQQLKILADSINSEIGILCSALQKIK
As to the kind of experiment: Cell Based Phenylalanine Flux Assay. The conditions noted are these: A375 cells expressing human R408W PAH, 13C-Tyrosine by LC-MS, average where tested multiple times, read-out: AC50.

As for `Cc1ncoc1C(=O)N1CCc2[nH]cnc2[C@@H]1c1nc2ccccc2s1` [Example 1162, (R)-(4-(benzo[d]thiazol-2-yl)-6,7-dihydro-1H-imidazo[4,5-c]pyridin-5(4H)-yl)(4-methyloxazol-5-yl)methanone], the AC50 – broadly, the concentration giving half of the maximal activity seen – (24 hrs compound incubation) is 1 to 5 µM.

Take `O=C(CCC1CC1)N1CCc2nc[nH]c2[C@@H]1c1nc2c(F)cccc2s1` [Example 1114, (R)-3-cyclopropyl-1-(4-(4-fluorobenzo[d]thiazol-2-yl)-6,7-dihydro-3H-imidazo[4,5-c]pyridin-5(4H)-yl)propan-1-one]: the AC50 (24 hrs compound incubation) is > 5 µM.

Consider `O=C(c1ocnc1C(F)(F)F)N1CCc2[nH]cnc2[C@@H]1c1nc2ccccc2s1` [Example 1326, (R)-(4-(benzo[d]thiazol-2-yl)-6,7-dihydro-1H-imidazo[4,5-c]pyridin-5(4H)-yl)(4-(trifluoromethyl)oxazol-5-yl)methanone], for which, for the setting “24 hrs compound incubation”, the AC50 fell in the range of 0.5 to 1 µM.

With `Cc1ncc(CC(=O)N2CCc3[nH]cnc3[C@H]2c2nc3ccccc3[nH]2)o1` [(S)-1-(4-(1H-benzo[d]imidazol-2-yl)-6,7-dihydro-1H-imidazo[4,5-c]pyridin-5(4H)-yl)-2-(2-methyloxazol-5-yl)ethanone], the AC50 (24 hrs with compound) was > 5 µM.

For the molecule `Cc1nc(-c2cnn(C)c2)oc1C(=O)N1CCc2[nH]cnc2[C@@H]1c1nc2c(F)cccc2s1` [Example 1377, (R)-(4-(4-fluorobenzo[d]thiazol-2-yl)-6,7-dihydro-1H-imidazo[4,5-c]pyridin-5(4H)-yl)(4-methyl-2-(1-methyl-1H-pyrazol-4-yl)oxazol-5-yl)methanone], the AC50 (24 hrs compound incubation) was > 5 µM.

`O=C(c1cnn2cccc(F)c12)N1CCc2[nH]cnc2C1c1nc2c(F)cccc2s1` (centres unmarked): the half-maximal activity concentration (AC50) (24 hrs with compound) lay in the range of 1 to 5 µM.

For the molecule “((4R)-4-(benzo[d]thiazol-2-yl)-3a,4,6,7,8,8a-hexahydroimidazo[4,5-c]azepin-5(1H)-yl)(4-cyclopropyloxazol-5-yl)methanone [Example 2168]”, the half-maximal activity concentration (AC50) (24 hrs compound incubation) fell in the range of 1 to 5 µM.

Regarding `O=C(c1cn[nH]c1)N1CCc2[nH]cnc2C1c1nc2ccccc2s1` (centres unmarked), the concentration at half-maximal activity (AC50) (24 hrs with compound) is 1 to 5 µM.

As to `CC(C)(O)c1cc(C(=O)N2CCc3[nH]cnc3C2c2nc3c(F)cccc3s2)ns1` (centres unmarked), for the setting “24 hrs with compound”, the AC50 is > 5 µM.

In the case of `O=C(c1cnn(CCO)c1Cl)N1CCc2[nH]cnc2C1c1nc2c(F)cccc2s1` (centres unmarked), the concentration at half-maximal activity (AC50) (24 hrs with compound) is > 5 µM.

On to `Cc1nc(C(C)(C)S(C)(=O)=O)oc1C(=O)N1CCc2[nH]cnc2[C@@H]1c1nc2c(F)cccc2s1` (single isomer, unassigned), for which, under “24 hrs with compound”, the AC50 is > 5 µM.

Take `COc1ccc2c(C(=O)N3CCc4[nH]cnc4C3c3nc4ccccc4s3)cnn2c1` (centres unmarked): the half-maximal activity concentration (AC50) (24 hrs with compound) was in the range of 1 to 5 µM.

Regarding `O=C(c1oc(C2CC2)nc1C(F)F)N1CCc2[nH]cnc2[C@H]1c1nc2c(F)cccc2s1` [Example 1571, (S)-(2-cyclopropyl-4-(difluoromethyl)oxazol-5-yl)(4-(4-fluorobenzo[d]thiazol-2-yl)-6,7-dihydro-1H-imidazo[4,5-c]pyridin-5(4H)-yl)methanone], the AC50 (24 hrs compound incubation) is < 0.5 µM.

For `O=C(c1cnco1)N1CCc2[nH]cnc2C1c1nc2cc(F)ccc2s1` (centres unmarked), the concentration at half-maximal activity (AC50) (24 hrs with compound) lay within 1 to 5 µM.

As to `CC(C)(C)c1ncc(C(=O)N2CCc3[nH]cnc3[C@@H]2c2nc3ccccc3s2)s1` [Example 1422, (R)-(4-(benzo[d]thiazol-2-yl)-6,7-dihydro-1H-imidazo[4,5-c]pyridin-5(4H)-yl)(2-(tert-butyl)thiazol-5-yl)methanone], under “24 hrs compound incubation”, the AC50 is 1 to 5 µM.

With `Cc1nc(C)c(C(=O)N2CCc3[nH]cnc3[C@@H]2c2nc3c(F)cccc3s2)o1` [Example 1322, (R)-(2,4-dimethyloxazol-5-yl)(4-(4-fluorobenzo[d]thiazol-2-yl)-6,7-dihydro-1H-imidazo[4,5-c]pyridin-5(4H)-yl)methanone], the AC50 (24 hrs compound incubation) was > 5 µM.

As for `O=C(c1cncs1)N1CCc2[nH]cnc2[C@@H]1c1nc2ccc(Br)cc2[nH]1` [Example 948, (R)-(4-(6-bromo-1H-benzo[d]imidazol-2-yl)-6,7-dihydro-1H-imidazo[4,5-c]pyridin-5(4H)-yl)(thiazol-5-yl)methanone], under “24 hrs compound incubation”, the half-maximal activity concentration (AC50) was in the range of 1 to 5 µM.

Take `O=C(c1cnc[nH]1)N1CCc2[nH]cnc2C1c1nc2ccccc2s1` (centres unmarked): where the note is “24 hrs with compound”, the AC50 was > 5 µM.

Consider `O=C(c1cnc(-c2ccc(C(F)(F)F)cn2)s1)N1CCc2[nH]cnc2[C@@H]1c1nc2ccccc2s1` [Example 1350, (R)-(4-(benzo[d]thiazol-2-yl)-6,7-dihydro-1H-imidazo[4,5-c]pyridin-5(4H)-yl)(2-(5-(trifluoromethyl)pyridin-2-yl)thiazol-5-yl)methanone], for which, for the setting “24 hrs compound incubation”, the half-maximal activity concentration (AC50) lay in the range of 1 to 5 µM.

As for `O=C(c1cnn2ccc(Br)cc12)N1CCc2[nH]cnc2[C@H]1c1nc2ccc(F)cc2s1` [Example 1137], under “24 hrs compound incubation”, the AC50 fell in the range of 0.5 to 1 µM.

With `Cc1ccc2c(C(=O)N3CCc4[nH]cnc4[C@H]3c3nc4c(F)cccc4s3)cnn2c1` [Example 1173, (S)-(4-(4-fluorobenzo[d]thiazol-2-yl)-6,7-dihydro-1H-imidazo[4,5-c]pyridin-5(4H)-yl)(6-methylpyrazolo[1,5-a]pyridin-3-yl)methanone], the AC50 (24 hrs compound incubation) lay within 0.5 to 1 µM.

Regarding `Cc1nc(C(C)(C)C#N)oc1C(=O)N1CCc2[nH]cnc2[C@@H]1c1nc2c(F)cccc2s1` [Example 1997, (R)-2-(5-(4-(4-fluorobenzo[d]thiazol-2-yl)-4,5,6,7-tetrahydro-1H-imidazo[4,5-c]pyridine-5-carbonyl)-4-methyloxazol-2-yl)-2-methylpropanenitrile], the AC50 (24 hrs compound incubation) lay within 1 to 5 µM.

Turning to `O=C(c1nc2ccc(F)cc2s1)N1CCc2[nH]cnc2C1c1nc2ccccc2s1` (centres unmarked), the concentration at half-maximal activity (AC50) (24 hrs with compound) is 1 to 5 µM.

For the molecule `O=C(c1oc(C2(O)CC2)nc1C(F)F)N1CCc2[nH]cnc2[C@H]1c1nc2c(F)cccc2s1` [Example 1995], the concentration at half-maximal activity (AC50) (24 hrs compound incubation) was < 0.5 µM.

With `O=C(C1CC1)N1CCc2[nH]cnc2[C@@H]1c1nc2ccccc2s1` [Example 1074, (R)-(4-(benzo[d]thiazol-2-yl)-6,7-dihydro-1H-imidazo[4,5-c]pyridin-5(4H)-yl)(cyclopropyl)methanone], the AC50 (24 hrs compound incubation) was > 5 µM.

Turning to `O=C(c1ccon1)N1CCc2[nH]cnc2C1c1nc2ccccc2s1` (centres unmarked), the half-maximal activity concentration (AC50) (24 hrs with compound) is > 5 µM.

Take `O=C(c1oc(C2CC2)nc1C(F)F)N1CCc2[nH]cnc2[C@@H]1c1nc2ccccc2s1` [Example 1622, (R)-(4-(benzo[d]thiazol-2-yl)-6,7-dihydro-1H-imidazo[4,5-c]pyridin-5(4H)-yl)(2-cyclopropyl-4-(difluoromethyl)oxazol-5-yl)methanone]: the AC50 (24 hrs compound incubation) is < 0.5 µM.

For the molecule `COCc1ccc2c(C(=O)N3CCc4[nH]cnc4[C@@H]3c3nc4ccccc4s3)c(C#N)nn2c1` [Example 1865, (R)-3-(4-(benzo[d]thiazol-2-yl)-4,5,6,7-tetrahydro-1H-imidazo[4,5-c]pyridine-5-carbonyl)-6-(methoxymethyl)pyrazolo[1,5-a]pyridine-2-carbonitrile], the concentration at half-maximal activity (AC50) (24 hrs compound incubation) was > 5 µM.

Take `Cn1nc(COC(F)(F)F)cc1C(=O)N1CCc2[nH]cnc2C1c1nc2c(F)cccc2s1` (centres unmarked): the half-maximal activity concentration (AC50) (24 hrs with compound) is > 5 µM.

`O=C(c1ocnc1-c1ccccn1)N1CCc2[nH]cnc2[C@H]1c1nc2ccccc2s1` [Example 1450]: the concentration at half-maximal activity (AC50) (24 hrs compound incubation) was in the range of 0.5 to 1 µM.

Consider `O=C(c1nncs1)N1CCc2[nH]cnc2C1c1nc2ccc(F)cc2s1` (centres unmarked), for which the concentration at half-maximal activity (AC50) (24 hrs with compound) was in the range of 1 to 5 µM.

Take `Cn1nccc1C(=O)N1CCc2[nH]cnc2[C@@H]1c1nc2c(F)cccc2s1` [Example 1604, (R)-(4-(4-fluorobenzo[d]thiazol-2-yl)-6,7-dihydro-1H-imidazo[4,5-c]pyridin-5(4H)-yl)(1-methyl-1H-pyrazol-5-yl)methanone]: under “24 hrs compound incubation”, the half-maximal activity concentration (AC50) is > 5 µM.
